Reference: BindingDB's records for patent US12202839 (University of Virginia Patent Foundation, 2025)

Molecular target: Protein tyrosine phosphatase type IVA 3 (Homo sapiens, UniProt O75365)
Assay: PTP4A3 Enzymatic Assay

Protein tyrosine phosphatase type IVA 3, sequence (O75365 whole entry): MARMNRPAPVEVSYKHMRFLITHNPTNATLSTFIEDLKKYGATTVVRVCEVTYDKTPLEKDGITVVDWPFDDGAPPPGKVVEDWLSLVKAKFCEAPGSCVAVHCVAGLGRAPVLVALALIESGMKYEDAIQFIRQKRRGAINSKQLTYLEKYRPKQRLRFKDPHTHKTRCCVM

IC50: 162 nM
Compound: O=C1NC(=O)c2sc(-c3ccccc3)cc2C1=O [US12202839, Compound 15]
